# Source: patent publication US9029553B2, “2-anilino nicotinyl linked 2-amino benzothiazole conjugates and process for the preparation thereof” (Council of Scientific & Industrial Research, priority 2011, dated 2015)
# How the values were obtained:
# SN12C = assay: NCI SRB GI50 screen; assay type: cell-based; conditions: Homo sapiens, Renal, 48 hrs exposure, read-out: Growth Inhibition GI50 SN12C
# Method: (§1) 2-Anilino nicotinyl linked 2-amino benzothiazole conjugates of formula 9-12 were tested against fifty nine human cancer cell lines derived from nine cancer types (leukemia, non-small cell lung cancer, colon cancer, CNS cancer, melanoma, ovarian cancer, renal cancer, prostate cancer and breast cancer) as per NCI protocol. For each compound, dose response curves for individual cell lines were measured at a minimum of five concentrations at 10 fold dilutions. A protocol of 48 hrs continuous drug exposure was used, and a sulforhodamine B (SRB) protein assay was used to estimate cell viability or growth.
# HT29 = assay: NCI SRB GI50 screen; assay type: cell-based; conditions: Homo sapiens, HT-29; Colon, 48 hrs exposure; read-out: Growth Inhibition GI50 HT29
# Method: as §1
# OVCAR-5 = assay: NCI SRB GI50 screen; assay type: cell-based; conditions: Homo sapiens, Ovarian, 48 hrs exposure, read-out: Growth Inhibition GI50 OVCAR-5
# Method: as §1
# HCT-15 = assay: NCI SRB GI50 screen; assay type: cell-based; conditions: Homo sapiens, Colon, 48 hrs exposure, read-out: Growth Inhibition GI50 HCT-15
# Method: as §1
# ACHN = assay: NCI SRB GI50 screen; assay type: cell-based; conditions: Homo sapiens, Renal, 48 hrs exposure, read-out: Growth Inhibition GI50 ACHN
# Method: as §1
# CCRF-CEM = assay: NCI SRB GI50 screen; assay type: cell-based; conditions: Homo sapiens, Leukemia, 48 hrs exposure, read-out: Growth Inhibition GI50 CCRF-CEM
# Method: as §1
# KM12 = assay: NCI SRB GI50 screen; assay type: cell-based; conditions: Homo sapiens, Colon, 48 hrs exposure, read-out: Growth Inhibition GI50 KM12
# Method: as §1
# HS 578T = assay: NCI SRB GI50 screen; assay type: cell-based; conditions: Homo sapiens, Breast, 48 hrs exposure, read-out: Growth Inhibition GI50 HS 578T
# Method: as §1
# A498 = assay: NCI SRB GI50 screen; assay type: cell-based; conditions: Homo sapiens, Renal, 48 hrs exposure, read-out: Growth Inhibition GI50 A498
# Method: as §1
# SK-MEL-28 = assay: NCI SRB GI50 screen; assay type: cell-based; conditions: Homo sapiens, Melanoma, 48 hrs exposure, read-out: Growth Inhibition GI50 SK-MEL-28
# Method: as §1
# SNB-19 = assay: NCI SRB GI50 screen; assay type: cell-based; conditions: Homo sapiens, CNS, 48 hrs exposure, read-out: Growth Inhibition GI50 SNB-19
# Method: as §1
# CAKI-1 = assay: NCI SRB GI50 screen; assay type: cell-based; conditions: Homo sapiens, Renal, 48 hrs exposure, read-out: Growth Inhibition GI50 CAKI-1
# Method: as §1
# OVCAR-3 = assay: NCI SRB GI50 screen; assay type: cell-based; conditions: Homo sapiens, Ovarian, 48 hrs exposure, read-out: Growth Inhibition GI50 OVCAR-3
# Method: as §1
# LOX IMVI = assay: NCI SRB GI50 screen; assay type: cell-based; conditions: Homo sapiens, Melanoma, 48 hrs exposure, read-out: Growth Inhibition GI50 LOX IMVI
# Method: as §1
# SK-MEL-5 = assay: NCI SRB GI50 screen; assay type: cell-based; conditions: Homo sapiens, Melanoma, 48 hrs exposure, read-out: Growth Inhibition GI50 SK-MEL-5
# Method: as §1
# HCT-116 = assay: NCI SRB GI50 screen; assay type: cell-based; conditions: Homo sapiens, Colon, 48 hrs exposure, read-out: Growth Inhibition GI50 HCT-116
# Method: as §1
# 786-0 = assay: NCI SRB GI50 screen; assay type: cell-based; conditions: Homo sapiens, Renal, 48 hrs exposure, read-out: Growth Inhibition GI50 786-0
# Method: as §1
# DU-145 = assay: NCI SRB GI50 screen; assay type: cell-based; conditions: Homo sapiens, Prostate, 48 hrs exposure, read-out: Growth Inhibition GI50 DU-145
# Method: as §1
# NCI-H322M = assay: NCI SRB GI50 screen; assay type: cell-based; conditions: Homo sapiens, Non-small lung, 48 hrs exposure, read-out: Growth Inhibition GI50 NCI-H322M
# Method: as §1
# SF-539 = assay: NCI SRB GI50 screen; assay type: cell-based; conditions: Homo sapiens, CNS, 48 hrs exposure, read-out: Growth Inhibition GI50 SF-539
# Method: as §1
# BT-549 = assay: NCI SRB GI50 screen; assay type: cell-based; conditions: Homo sapiens, Breast, 48 hrs exposure, read-out: Growth Inhibition GI50 BT-549
# Method: as §1
# HL-60(TB) = assay: NCI SRB GI50 screen; assay type: cell-based; conditions: Homo sapiens, Leukemia, 48 hrs exposure, read-out: Growth Inhibition GI50 HL-60(TB)
# Method: as §1
# SR = assay: NCI SRB GI50 screen; assay type: cell-based; conditions: Homo sapiens, Leukemia, 48 hrs exposure, read-out: Growth Inhibition GI50 SR
# Method: as §1
# NCI-H23 = assay: NCI SRB GI50 screen; assay type: cell-based; conditions: Homo sapiens, Non-small lung, 48 hrs exposure, read-out: Growth Inhibition GI50 NCI-H23
# Method: as §1
# SK-MEL-2 = assay: NCI SRB GI50 screen; assay type: cell-based; conditions: Homo sapiens, Melanoma, 48 hrs exposure, read-out: Growth Inhibition GI50 SK-MEL-2
# Method: as §1
# IGROV1 = assay: NCI SRB GI50 screen; assay type: cell-based; conditions: Homo sapiens, IGROV-1; Ovarian, 48 hrs exposure; read-out: Growth Inhibition GI50 IGROV1
# Method: as §1
# Sw-620 = assay: NCI SRB GI50 screen; assay type: cell-based; conditions: Homo sapiens, Colon, 48 hrs exposure, read-out: Growth Inhibition GI50 SW-620
# Method: as §1
# PARP = assay: Western blot of cell death targets; assay type: cell-based, human; conditions: 1 μM, 24 h, HL-60
# Method: Apoptosis was further characterized by the western blot analysis. Cells were treated with tested compounds at 1 μM for 24 h and expression of key apoptotic proteins like NF-kB, survivin; PARP, Bcl-2 and HSP-90 were analyzed through western blot. Both NF-kB and survivin are highly expressed in HL-60 cells. NF-kB is a transcriptional factor regulating the expression of several genes in the cells whereas survivin is a cell cycle regulated inhibitor of apoptosis protein (IAP), mostly over expressed in most of the tumors.
# During apoptotic stimuli activated caspase-3 appears to cause DNA fragmentation through activation of caspase activated DNAse (CAD) in the nucleus of the cells. […] Cancer cells have very high level of heat shock proteins. These are molecular chaperones expressed constitutively under normal conditions to maintain protein homeostasis and are induced upon environmental stress.
SMILES,melting point,GI50 (SN12C),GI50 (HT29),GI50 (OVCAR-5),GI50 (HCT-15),GI50 (ACHN),GI50 (CCRF-CEM),GI50 (KM12),GI50 (HS 578T),GI50 (A498),GI50 (SK-MEL-28),GI50 (SNB-19),GI50 (CAKI-1),GI50 (OVCAR-3),GI50 (LOX IMVI),GI50 (SK-MEL-5),GI50 (HCT-116),GI50 (786-0),GI50 (DU-145),GI50 (NCI-H322M),further results
"COc1cc(Nc2ncccc2C(=O)Nc2nc3ccc(F)cc3s2)cc(OC)c1OC [Compound 11, N3-(6-fluoro-1,3-benzothiazol-2-yl)-2-(3,4,5-trimethoxyanilino)nicotinamide]",214 to 216 °C,4.73 µM,5.15 µM,25.6 µM,4.38 µM,4.82 µM,3.26 µM,3.79 µM,2.57 µM,3.45 µM,4.33 µM,3.49 µM,3.15 µM,2.77 µM,3.87 µM,1.63 µM,3.49 µM,5.51 µM,5.5 µM,3.71 µM,GI50 (SF-539): 3.84 µM; GI50 (BT-549): 2.63 µM; GI50 (HL-60(TB)): 1.86 µM; GI50 (SR): 2.97 µM; GI50 (NCI-H23): 2.27 µM; GI50 (SK-MEL-2): 2.34 µM; GI50 (IGROV1): 1.77 µM
"O=C(Nc1nc2ccc(F)cc2s1)c1cccnc1Nc1ccc(Cl)cc1Cl [Compound 10, N3-(6-fluoro-1,3-benzothiazol-2-yl)-2-(2,4-dichloroanilino)nicotinamide]",208 to 210 °C,2.32 µM,2.98 µM,4.46 µM,3.74 µM,3.72 µM,1.85 µM,2.9 µM,3.25 µM,2.83 µM,4.09 µM,3.66 µM,1.5 µM,2.44 µM,4.19 µM,1.71 µM,2.19 µM,3.77 µM,3.53 µM,3.24 µM,GI50 (Sw-620): 3.4 µM; GI50 (SF-539): 4.02 µM; GI50 (BT-549): 3.01 µM; GI50 (HL-60(TB)): 1.83 µM; GI50 (SR): 3.03 µM; GI50 (NCI-H23): 2.34 µM; GI50 (SK-MEL-2): 1.74 µM; GI50 (IGROV1): 1.82 µM
"COc1ccc2nc(NC(=O)c3cccnc3Nc3cc(OC)c(OC)c(OC)c3)sc2c1 [Compound 12, N-3-(6-methoxy-1,3-benzothiazol-2-yl)-2-(3,4,5-trimethoxyanilino) nicotinamide]",121 to 125 °C (dec.),11.7 µM,17.7 µM,14.5 µM,11.2 µM,6.47 µM,20.1 µM,4.51 µM,5.77 µM,2.19 µM,7.88 µM,15 µM,16.4 µM,8.92 µM,15.7 µM,11.3 µM,4.5 µM,5.6 µM,14.6 µM,17.3 µM,GI50 (Sw-620): 11.8 µM; GI50 (SF-539): 2.81 µM; GI50 (BT-549): 11.6 µM; GI50 (HL-60(TB)): 32.3 µM; GI50 (SR): 2.31 µM; GI50 (NCI-H23): 5.38 µM; GI50 (IGROV1): 13.2 µM
"O=C(Nc1nc2ccc([N+](=O)[O-])cc2s1)c1cccnc1Nc1cc(F)c(F)c(F)c1 [Compound 8, N3-(6-nitro-1,3-benzothiazol-2-yl)-2-[(3,4,5-trifluorophenyl)amino]-3-pyridine carboxamide]",,,,,,,,,,,,,,,,,,,,,PARP cleavage (western blot) (PARP): highest potential
"O=C(Nc1nc2ccc(F)cc2s1)c1cccnc1Nc1ccc(Cl)cc1 [Compound 9, N3-(6-fluoro-1,3-benzothiazol-2-yl)-2-(4-chloroanilino)nicotinamide]",254 to 257 °C,2.3 µM,2.86 µM,2.63 µM,3.32 µM,3.08 µM,1.06 µM,2.61 µM,1.99 µM,1.92 µM,3.51 µM,3.65 µM,2.89 µM,2.17 µM,2.62 µM,1.11 µM,1.67 µM,2.78 µM,3.67 µM,3.25 µM,GI50 (Sw-620): 1.02 µM; GI50 (SF-539): 2.7 µM; GI50 (BT-549): 2.05 µM; GI50 (HL-60(TB)): 1.74 µM; GI50 (SR): 2.28 µM; GI50 (NCI-H23): 1.67 µM; GI50 (SK-MEL-2): 1.25 µM; GI50 (IGROV1): 2 µM
